Source: patent publication US11254700B2, “GSK-3β inhibitors and use thereof in methods of treatment” (UNIVERSITY OF HAWAII, priority 2017, dated 2022)
“Also recorded” adds a separate entry of the source.

Assays:
Format in all cases: in vivo, mouse
APP/PS1 transgenic mice = test: Morris water maze test
Procedure: The backgrounds of all mice (APP/PS1 dual transgenic mice and wild-type mice with littermates) were C57/B6. Transgenic mice were randomly divided into three groups (n=20 for each group), and wild-type mice were used as controls (n=20). […] Throughout the study-period, animals were housed in a controlled environment (temperature, 22° C.; humidity, 50-60%, 12-hour light/12-hour dark schedules), with free access to rodent chow and water. After a Morris water maze test, mice were perfused with cold phosphate-buffered saline (PBS), brain tissues were dissected and kept frozen at −80° C. until further analysis. […] Isoorientin was dissolved in sterilized, ultrapure water, sonicated for 20 minutes at a concentration of 5 mg/ml and 2.5 mg/ml, and stored at 4° C. Isoorientin was administered by oral gavage. The required amount of solution was returned to room temperature before intragastric administration. […] The maze was composed of a circular pool (120 cm in diameter) filled with water (22±2° C.) to a height of 30 cm. […] Mice were given day of adaptive training followed by trials on six consecutive days. Each trial started by gently placing the mouse into the water with its head toward the pool wall of any of the three quadrants without the platform. If an animal found the platform within 60 seconds, it was left on the platform for 20 seconds. […] On the last day of Morris water maze test, the platform was removed and the number of times that the mice crossed the location of the original platform was quantified. Between trials, all mice were placed back in their home cages using a spoon-net to avoid direct contact with the experimenter. All trials were tracked automatically by a digital tracking system (Feidi Biological Technology) assessing path length, swimming speed, and latency to escape from the water.

IgG anti-Aβ42 = test: Anti-Aβ immunoglobulin (IgG) in serum by ELISA; conditions: APP/PS1 mice, 60-day intragastric, vs model group
Procedure: The backgrounds of all mice (APP/PS1 dual transgenic mice and wild-type mice with littermates) were C57/B6. Transgenic mice were randomly divided into three groups (n=20 for each group), and wild-type mice were used as controls (n=20). The control group and one group of transgenic mice (model group) were given sterilized ultrapure water, and the other two groups of transgenic mice received low- and high-dose Isoorientin (20 and 50 mg/kg, respectively) via intragastric administration for 60 days. Throughout the study-period, animals were housed in a controlled environment (temperature, 22° C.; humidity, 50-60%, 12-hour light/12-hour dark schedules), with free access to rodent chow and water. After a Morris water maze test, mice were perfused with cold phosphate-buffered saline (PBS), brain tissues were dissected and kept frozen at −80° C. until further analysis. […] Blood was collected from mice. […] The anti-Aβ immunoglobulin (IgG) was measured using an enzyme-linked immunosorbent assay (ELISA) kit according to the manufacturer's protocol (see also, Song, et al. (2017) PLoS One 12(1):e0169509). […] The optical densities at 450 nm were analyzed using a microreader (TECAN, Switzerland) and linear regression was confirmed by ab126468, polyclonal anti-amyloid fibril antibody, as positive internal control. […]

[1] = test system: TNFα, IL-2, IFN-γ, IL-4, IL-10; test: Serum cytokines; conditions: APP/PS1 mice, vs model group
Procedure: The backgrounds of all mice (APP/PS1 dual transgenic mice and wild-type mice with littermates) were C57/B6. Transgenic mice were randomly divided into three groups (n=20 for each group), and wild-type mice were used as controls (n=20). The control group and one group of transgenic mice (model group) were given sterilized ultrapure water, and the other two groups of transgenic mice received low- and high-dose Isoorientin (20 and 50 mg/kg, respectively) via intragastric administration for 60 days. Throughout the study-period, animals were housed in a controlled environment (temperature, 22° C.; humidity, 50-60%, 12-hour light/12-hour dark schedules), with free access to rodent chow and water. After a Morris water maze test, mice were perfused with cold phosphate-buffered saline (PBS), brain tissues were dissected and kept frozen at −80° C. until further analysis. […] T-cell-specific cytokines (Interferon-γ (IFN-γ), interleukin (IL)-2, IL-4, and IL-10) in mouse serum were also measured. Mouse Th17 Magnetic Bead Panel 96-Well Plate Assay was purchased from Millipore. The assay was performed in a 96-well plate and all reagents were prepared according to the Millipore instructions. Briefly, 200 μL of Wash Buffer was added into each well to pre-wet plate, Wash Buffer was decanted thoroughly and the plate was mixed on a plate shaker for 10 minutes at room temperature (25-27° C.). In accordance with the instructions of the kit, the appropriate reagents were added to the wells and the plate was sealed and incubated overnight at 4° C. in the dark. Plates were put on the magnetic support and each well was washed twice with 200 μl of wash buffer via a plate shaker at 450 rpm for 2 minutes at room temperature. After adding 5 μl of detection antibody to each well, the plate was sealed and incubated with agitation on a plate shaker for 1 hour at room temperature. […] Binding was assessed using a LUMINEX-200 instrument and xPONENT software. Serum samples were analyzed for IL4 and TNFα using a Mouse IL4 ELISA Kit and a Mouse TNFα ELISA Kit, respectively, according to the manufacturer's instructions. […]

O=c1cc(-c2ccc(O)c(O)c2)oc2cc(O)c([C@@H]3O[C@H](CO)[C@@H](O)[C@H](O)[C@H]3O)c(O)c12 [Compound 1, isoorientin]
platform cross frequencies (APP/PS1 transgenic mice; all doses, vs untreated APP/PS1): significantly increased | escape latency (APP/PS1 transgenic mice; intragastric, 60 days, all doses, vs untreated APP/PS1): significantly reduced the escape latency | cognitive deficit (APP/PS1 transgenic mice; oral, 25-mg/kg): significant alleviation of cognitive deficit | IgG anti-Aβ42 in serum (IgG anti-Aβ42): decreased; also recorded: reduced | IFNγ in serum [1]: no statistical difference in the decrease | anti-inflammatory factors (IL-4, IL-10) in serum [1]: significantly elevated | pro-inflammatory factors (TNFα, IFNγ, IL-2) in serum [1]: slightly lower than those in the model group
